US9765092B2, “Tricyclic piperidine compounds” (ACTELION PHARMACEUTICALS LTD, priority 2013, dated 2017)

Target: human TPH1 (Homo sapiens (Human), UniProt P17752)
Test: Biochemical in vitro assay using fluorescence readout (TPH1 inhibition)
Conditions: not given

Sequence of human TPH1 (P17752 whole entry): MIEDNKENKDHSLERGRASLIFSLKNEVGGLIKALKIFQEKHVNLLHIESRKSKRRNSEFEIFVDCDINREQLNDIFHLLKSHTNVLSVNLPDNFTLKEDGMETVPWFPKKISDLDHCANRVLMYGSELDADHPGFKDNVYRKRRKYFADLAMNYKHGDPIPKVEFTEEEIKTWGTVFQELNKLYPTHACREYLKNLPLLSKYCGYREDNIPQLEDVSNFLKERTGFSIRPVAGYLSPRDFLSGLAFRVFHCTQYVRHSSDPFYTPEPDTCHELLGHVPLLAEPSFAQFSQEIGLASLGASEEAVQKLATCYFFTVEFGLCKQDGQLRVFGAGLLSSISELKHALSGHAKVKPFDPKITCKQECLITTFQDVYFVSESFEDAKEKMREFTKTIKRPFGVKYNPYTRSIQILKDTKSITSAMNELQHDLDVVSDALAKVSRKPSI

Row | SMILES | IC50 [nM]
1 | Cc1nn2c3c(nc2s1)CCN(C(=O)COc1ccc(NS(C)(=O)=O)nc1Cl)C3c1ncccc1F (stereo not shown) [Example 1.35.4, N-(6-chloro-5-(2-(5-(3-fluoropyridin-2-yl)-2-methyl-7,8-dihydro-[1,3,4]thiadiazolo[2′,3′:2,3]imidazo[4,5-c]pyridine-6(5H)-yl)-2-oxoethoxy)pyridin-2-l)methanesulfonamide] | 35

Same assay, conditions: full length human TPH1, 40 μM L-tryptophan, 15° C., 60 minutes, fluorescence at 540 nm; mean if determined several times

Row | SMILES | IC50 [nM]
2 | Cc1nn2c3c(nc2s1)CCN(C(=O)COc1ccc(N2CCOCC2)nc1Cl)C3c1ccc(CN(C)C)s1 (stereo not shown) [Example 1.36.1, 2-((2-Chloro-6-morpholinopyridin-3-yl)oxy)-1-(5-(5-((dimethylamino)-methyl)thiophen-2-yl)-2-methyl-7,8-dihydro-[1,3,4]thiadiazolo[2′,3′:2,3]imidazo[4,5-c]pyridin-6(5H)-yl)-ethanone] | 384
3 | CNC(=O)c1ccc(OCC(=O)N2CCc3nc4sc(C)nn4c3C2c2ncc(C(=O)N(C)C)s2)c(Cl)n1 (stereo not shown) [Example 1.37.1, 2-(6-(2-((2-Chloro-6-(methylcarbamoyl)pyridin-3-yl)oxy)acetyl)-2-methyl-5,6,7,8-tetra-hydro-[1,3,4]thiadiazolo[2′,3′:2,3]imidazo[4,5-c]pyridin-5-yl)-N,N-dimethylthiazole-5-carboxamide] | 176
4 | Cc1nn2c3c(nc2s1)CCN(C(=O)COc1ccc(N2CC(F)(F)C2)nc1Cl)C3c1ncc(C(=O)N(C)C)s1 (stereo not shown) [Example 1.37.2, 2-(6-(2-((2-Chloro-6-(3,3-difluoroazetidin-1-yl)pyridin-3-yl)oxy)acetyl)-2-methyl-5,6,7,8-tetrahydro-[1,3,4]thiadiazolo[2′,3′:2,3]imidazo[4,5-c]pyridin-5-yl)-N,N-dimethylthiazole-5-carboxamide] | 51
5 | Cc1nn2c3c(nc2s1)CCN(C(=O)COc1ccc(NS(C)(=O)=O)nc1Cl)C3c1ncc(C(=O)N(C)C)s1 (stereo not shown) [Example 1.37.3, 2-(6-(2-((2-Chloro-6-(methylsulfonamido)pyridin-3-yl)oxy)acetyl)-2-methyl-5,6,7,8-tetrahydro-[1,3,4]thiadiazolo[2′,3′:2,3]imidazo[4,5-c]pyridin-5-yl)-N,N-dimethylthiazole-5-carboxamide] | 40
6 | Cc1nn2c3c(nc2s1)CCN(C(=O)COc1ccc(C(=O)N(C)C)nc1Cl)C3c1ncc(C(=O)N(C)C)s1 (stereo not shown) [Example 1.37.4, 2-(6-(2-((2-Chloro-6-(dimethylcarbamoyl)pyridin-3-yl)oxy)acetyl)-2-methyl-5,6,7,8-tetrahydro-[1,3,4]thiadiazolo[2′,3′:2,3]imidazo[4,5-c]pyridin-5-yl)-N,N-dimethylthiazole-5-carboxamide] | 40
7 | Cc1nn2c3c(nc2s1)CCN(C(=O)COc1ccc(N2CCOCC2)nc1Cl)C3c1ncc(C(=O)N(C)C)s1 (stereo not shown) [Example 1.37.5, 2-(6-(2-((2-Chloro-6-morpholinopyridin-3-yl)oxy)acetyl)-2-methyl-5,6,7,8-tetrahydro-[1,3,4]thiadiazolo[2′,3′:2,3]imidazo[4,5-c]pyridin-5-yl)-N,N-dimethylthiazole-5-carboxamide] | 9
8 | Cc1nn2c3c(nc2s1)CCN(C(=O)COc1ccc(N2CCOCC2)nc1Cl)C3c1csc(C(=O)O)c1 (stereo not shown) [Example 1.38.1, 4-(6-(2-((2-Chloro-6-morpholinopyridin-3-yl)oxy)acetyl)-2-methyl-5,6,7,8-tetrahydro-[1,3,4]thiadiazolo[2′,3′:2,3]imidazo[4,5-c]pyridin-5-yl)thiophene-2-carboxylic acid] | 113
9 | Cc1nn2c3c(nc2s1)CCN(C(=O)COc1ccc(C(=O)N(C)C)nc1Cl)C3c1ccc(C(=O)N(C)C)o1 (stereo not shown) [Example 1.40.1, 6-Chloro-5-(2-(5-(5-(dimethylcarbamoyl)furan-2-yl)-2-methyl-7,8-dihydro[1,3,4]thiadiazolo[2′,3′:2,4]imidazo[4,5-c]pyridin-6(5H)-yl)-2-oxoethoxy)-N,N-dimethylpicolinamide] | 90
10 | Cc1nn2c3c(nc2s1)CCN(C(=O)COc1ccc(N2CCOCC2)nc1Cl)C3c1ccc(C(=O)N(C)C)o1 (stereo not shown) [Example 1.40.2, 5-(6-(2-((2-Chloro-6-morpholinopyridin-3-yl)oxy)acetyl)-2-methyl-5,6,7,8-tetrahydro-[1,3,4]thiadiazolo[2′,3′:2,3]imidazo[4,5-c]pyridin-5-yl)-N,N-dimethylfuran-2-carboxamide] | 12
11 | Cc1nn2c3c(nc2s1)CCN(C(=O)COc1ccc(N2CCOCC2)nc1Cl)C3c1nc(C(=O)O)cs1 (stereo not shown) [Example 1.41.1, 2-(6-(2-((2-chloro-6-morpholinopyridin-3-yl)oxy)acetyl)-2-methyl-5,6,7,8-tetrahydro-[1,3,4]thiadiazolo[2′,3′:2,3]imidazo[4,5-c]pyridin-5-yl)thiazole-4-carboxylic acid] | 65

Same assay, conditions: human TPH1, fluorescence readout

Row | SMILES | IC50 [nM]
12 | Cc1nn2c3c(nc2s1)CCN(C(=O)COc1ccc(C(=O)N(C)C)nc1Cl)C3c1ncc(Cl)cc1F (stereo not shown) [Example 1.33.3, 6-chloro-5-(2-(5-(5-chloro-3-fluoropyridin-2-yl)-2-methyl-7,8-dihydro-[1,3,4]thiadiazolo[2′,3′:2,3]imidazo[4,5-c]pyridin-6(5H)-yl)-2-oxoethoxy)-N,N-dimethylpicolinamide] | 6
13 | Cc1nn2c3c(nc2s1)CCN(C(=O)COc1ccc(C(N)=O)nc1Cl)C3c1ncc(Cl)cc1F (stereo not shown) [Example 1.33.4, 6-chloro-5-(2-(5-(5-chloro-3-fluoropyridin-2-yl)-2-methyl-7,8-dihydro-[1,3,4]thiadiazolo[2′,3′:2,3]imidazo[4,5-c]pyridin-6(5H)-yl)-2-oxoethoxy)picolinamide] | 7
14 | CNC(=O)c1ccc(OCC(=O)N2CCc3nc4sc(C)nn4c3C2c2ncc(Cl)cc2F)c(Cl)n1 (stereo not shown) [Example 1.33.5, 6-chloro-5-(2-(5-(5-chloro-3-fluoropyridin-2-yl)-2-methyl-7,8-dihydro-[1,3,4]thiadiazolo[2′,3′:2,3]imidazo[4,5-c]pyridin-6(5H)-yl)-2-oxoethoxy)-N-methylpicolinamide] | 6
15 | Cc1nn2c3c(nc2s1)CCN(C(=O)COc1ccc(NS(C)(=O)=O)nc1Cl)C3c1ncc(Cl)cc1F (stereo not shown) [Example 1.33.6, N-(6-chloro-5-(2-(5-(5-chloro-3-fluoropyridin-2-yl)-2-methyl-7,8-dihydro-[1,3,4]thiadiazolo[2′,3′:2,3]imidazo[4,5-c]pyridin-6(5H)-yl)-2-oxoethoxy)pyridin-2-yl)methanesulfonamide] | 6
16 | Cc1nn2c3c(nc2s1)CCN(C(=O)COc1ccc(NS(C)(=O)=O)cc1Cl)C3c1ncc(Cl)cc1F (stereo not shown) [Example 1.33.7, N-(3-chloro-4-(2-(5-(5-chloro-3-fluoropyridin-2-yl)-2-methyl-7,8-dihydro-[1,3,4]thiadiazolo[2′,3′:2,3]imidazo[4,5-c]pyridin-6(5H)-yl)-2-oxoethoxy)phenyl)methanesulfonamide] | 13
17 | Cc1nn2c3c(nc2s1)CCN(C(=O)COc1ccc(N2CCOCC2)nc1Cl)C3c1cnc(C(=O)N(C)C)s1 (stereo not shown) [Example 1.34.1, 5-(6-(2-((2-chloro-6-morpholinopyridin-3-yl)oxy)acetyl)-2-methyl-5,6,7,8-tetrahydro-[1,3,4]thiadiazolo[2′,3′:2,3]imidazo[4,5-c]pyridin-5-yl)-N,N-dimethylthiazole-2-carboxamide] | 6
18 | Cc1nn2c3c(nc2s1)CCN(C(=O)COc1ccc(C(=O)N(C)C)nc1Cl)C3c1cnc(C(=O)N(C)C)s1 (stereo not shown) [Example 1.34.2, 5-(6-(2-((2-chloro-6-(dimethylcarbamoyl)pyridin-3-yl)oxy)acetyl)-2-methyl-5,6,7,8-tetrahydro-[1,3,4]thiadiazolo [2′,3′:2,3]imidazo[4,5-c]pyridin-5-yl)-N,N-dimethylthiazole-2-carboxamide] | 9
19 | Cc1nn2c3c(nc2s1)CCN(C(=O)COc1ccc(NS(C)(=O)=O)nc1Cl)C3c1cnc(C(=O)N(C)C)s1 (stereo not shown) [Example 1.34.3, 5-(6-(2-((2-chloro-6-(methylsulfonamido)pyridin-3-yl)oxy)acetyl)-2-methyl-5,6,7,8-tetrahydro-[1,3,4]thiadiazolo [2′,3′:2,3]imidazo[4,5-c]pyridin-5-yl)-N,N-dimethylthiazole-2-carboxamide] | 104
20 | Cc1nn2c3c(nc2s1)CCN(C(=O)COc1ccc(N2CCOCC2)nc1Cl)C3c1ncccc1F (stereo not shown) [Example 1.35.1, 2-((2-chloro-6-morpholinopyridin-3-yl)oxy)-1-(5-(3-fluoropyridin-2-yl)-2-methyl-7,8-dihydro-[1,3,4]thiadiazolo [2′,3′:2,3]imidazo[4,5-c]pyridin-6(5H)-yl)ethanone] | 6
21 | Cc1nn2c3c(nc2s1)CCN(C(=O)COc1ccc(C(=O)N(C)C)nc1Cl)C3c1ncccc1F (stereo not shown) [Example 1.35.2, 6-chloro-5-(2-(5-(3-fluoropyridin-2-yl)-2-methyl-7,8-dihydro-[1,3,4]thiadiazolo[2′,3′:2,3]imidazo[4,5-c]pyridin-6(5H)-yl)-2-oxoethoxy)-N,N-dimethylpicolinamide] | 45
22 | CNC(=O)c1ccc(OCC(=O)N2CCc3nc4sc(C)nn4c3C2c2ncccc2F)c(Cl)n1 (stereo not shown) [Example 1.35.3, 6-chloro-5-(2-(5-(3-fluoropyridin-2-yl)-2-methyl-7,8-dihydro-[1,3,4]thiadiazolo[2′,3′:2,3]imidazo[4,5-c]pyridin-6(5H)-yl)-2-oxoethoxy)-N-methylpicolinamide] | 29
23 | Cc1nn2c3c(nc2s1)CCN(C(=O)COc1ccc(NS(C)(=O)=O)nc1Cl)C3c1cncs1 (stereo not shown) [Example 1.39.1, N-(6-chloro-5-(2-(2-methyl-5-(thiazol-5-yl)-7,8-dihydro-[1,3,4]thiadiazolo[2′,3′:2,3]imidazo[4,5-c]pyridin-6(5H)-yl)-2-oxoethoxy)pyridin-2-yl)methanesulfonamide] | 101
24 | Cc1nn2c3c(nc2s1)CCN(C(=O)COc1ccc(C(=O)N(C)C)nc1Cl)C3c1cncs1 (stereo not shown) [Example 1.39.2, 6-chloro-N,N-dimethyl-5-(2-(2-methyl-5-(thiazol-5-yl)-7,8-dihydro-[1,3,4]thiadiazolo[2′,3′:2,3]imidazo[4,5-c]pyridin-6(5H)-yl)-2-oxoethoxy)picolinamide] | 69
25 | Cc1nn2c3c(nc2s1)CCN(C(=O)COc1ccc(N2CCOCC2)nc1Cl)C3c1cncs1 (stereo not shown) [Example 1.39.3, 2-((2-chloro-6-morpholinopyridin-3-yl)oxy)-1-(2-methyl-5-(thiazol-5-yl)-7,8-dihydro-[1,3,4]thiadiazolo[2′,3′:2,3]imidazo[4,5-c]pyridin-6(5H)-yl)ethanone] | 5
